According to publication PMC4061029, “A Stable and Reproducible Human Blood-Brain Barrier Model Derived from Hematopoietic Stem Cells” (PLoS ONE, 2014):

Legend:
[1] = system: CD34+-derived ECs co-cultured with pericytes; test: Cell viability of ECs under Wnt antagonist; format: cell-based, human; settings: co-culture with pericytes, 4 days
[2] = system: CD34+-derived ECs co-cultured with pericytes; test: Abrogation of Wnt signaling: paracellular permeability of ECs co-cultured with pericytes; format: cell-based, human; settings: co-culture with pericytes, 4 days, 0.1 or 1 µM, luminal side
Description: Prior to the experiments, HEPES-buffered Ringer’s solution (in some cases EBM-2 medium) was added to empty wells of a 12-well plate (Costar). Filter inserts, containing confluent monolayers of CD34^+-ECs, were subsequently placed in the 12-well plate, filled with compound solution containing the fluorescent integrity marker Lucifer Yellow (20 µM; Life Technologies), and then placed on an orbital shaker. After 1 h, filter inserts were withdrawn from the receiver compartment. Aliquots from the donor solution were taken at the beginning and at the end of the experiments and the fluorescence was quantified. At least three inserts with cells and three without cells were tested in each permeability measurement. Fluorescence detection was carried out on a Synergy H1 multiplates reader (Biotek) using the following excitation/emission wavelength (nm) settings: 432/538; 490/516; 542/570 for Lucifer yellow, Fluorescein Na and Cy3-Human Serum Albumin and Human IgG respectively.
For Wnt signaling experiments, mono- and co-culture systems were used. […]
Figure 6 Evaluation of Wnt signaling in the induction of BBB properties in ECs. […] After 4 days of coculture, the paracellular permeability and cell organization were evaluated. (D) Fluorescence microscopy images showing the expression of ZO-1 in untreated ECs or ECs treated with XAV 939 (1 µM) for 4 days. […]

[3] = system: iPSC-derived ECs with astrocytes; set-up: method as in PMID 24561821; settings: cited from earlier work

Compound | cell viability [1] | paracellular permeability of the EC monolayer to lucifer yellow [2] | TEER of the BBB model [3]
Oc1nc(-c2ccc(C(F)(F)F)cc2)nc2c1CSCC2 [XAV-939] | did not affect | increased | 
CC1=C(/C=C/C(C)=C/C=C/C(C)=C/C(=O)O)C(C)(C)CCC1 [retinoic acid] |  |  | up to 5000 Ω×cm^2
